Experimental data published in ChEMBL document CHEMBL5537201, “Discovery of Unique Bis-Substituted Aromatic Amide Derivatives as Novel Highly Potent Antibiotics for Combating Methicillin-Resistant Staphylococcus aureus (MRSA)” (J Med Chem, 2024).
In brackets after ≈: the same amount, converted by molar mass. Activity calls are given as the source filed them. No cut-off for these calls is given here.

Legend:
Staphylococcus hominis [1] = assay: Antimicrobial activity against methicillin-resistant Staphylococcus hominis assessed as reduction in bacterial growth incubated for 24 hrs by two-fold broth dilution method; type: functional
Staphylococcus aureus [2] = assay: Bactericidal activity against Staphylococcus aureus ATCC6538 assessed as reduction in survival rate at 5 to 10 times MIC measured within 1 hr by colony counting method; type: functional, organism-based
[3] = Hemolytic activity in rabbit Red blood cell assessed as hemolysis incubated for 1 hr by two-fold microdilution method; type: toxicity, cell-based, Oryctolagus cuniculus, Erythrocyte; conditions: red blood cells (erythrocytes)
[4] = Selectivity index, ratio of HC50 for rabbit Red blood cell to MIC for Staphylococcus aureus ATCC6538; type: toxicity; conditions: red blood cells (erythrocytes), read-out: Selectivity Index
[5] = Cytotoxicity against HEK293 cells assessed as reduction in cell viability measured after 24 hrs by CCK-8 method; type: toxicity, cell-based; conditions: human
A549 = assay: Cytotoxicity against human A549 cells assessed as reduction in cell viability measured after 24 hrs by CCK-8 method; type: functional, cell-based; conditions: A549, 24 h
Staphylococcus aureus [6] = assay: Antimicrobial activity against methicillin resistant Staphylococcus aureus clinical isolate MRS23 assessed as reduction in bacterial growth incubated for 24 hrs by two-fold broth dilution method; type: functional
Staphylococcus aureus [7] = assay: Antimicrobial activity against methicillin resistant Staphylococcus aureus clinical isolate MRS70 assessed as reduction in bacterial growth incubated for 24 hrs by two-fold broth dilution method; type: functional
Staphylococcus aureus [8] = assay: Antimicrobial activity against methicillin resistant Staphylococcus aureus clinical isolate MRS207 assessed as reduction in bacterial growth incubated for 24 hrs by two-fold broth dilution method; type: functional
Staphylococcus aureus [9] = assay: Antimicrobial activity against methicillin resistant Staphylococcus aureus clinical isolate MRS153 assessed as reduction in bacterial growth incubated for 24 hrs by two-fold broth dilution method; type: functional
Staphylococcus aureus [10] = assay: Antimicrobial activity against methicillin resistant Staphylococcus aureus clinical isolate MRS84 assessed as reduction in bacterial growth incubated for 24 hrs by two-fold broth dilution method; type: functional
Staphylococcus aureus [11] = assay: Antimicrobial activity against methicillin resistant Staphylococcus aureus clinical isolate MRS121 assessed as reduction in bacterial growth incubated for 24 hrs by two-fold broth dilution method; type: functional
Staphylococcus aureus [12] = assay: Antibiofilm activity against Staphylococcus aureus ATCC6538 assessed as reduction in biofilm formation at 1 to 32 ug/ml incubated for 20 to 22 hrs by crystal violet staining based analysis; type: functional, organism-based; conditions: dose 1-32 µg/ml, time 20-22 hrs
Staphylococcus aureus [13] = assay: Induction of membrane morphological changes in Staphylococcus aureus ATCC6538 assessed as formation of cell pit at 5 times of MIC measured after 0.5 hrs by FE-SEM analysis; type: functional, organism-based
Cell membrane [14] = assay: Induction of Outer membrane disruption in methicillin resistant Staphylococcus aureus clinical isolate MRS153 assessed as […] in fluorescence intensity measured upto 30 mins by NPN dye based fluorescence analysis; type: cell membranes
Cell membrane [15] = assay: Induction of inner membrane permeabilization in methicillin resistant Staphylococcus aureus clinical isolate MRS153 assessed as increase in red fluorescence at 5 ug/ml by PI staining based analysis; type: cell membranes; conditions: dose 5.0 µg/ml
Cell membrane [16] = assay: Induction of inner membrane permeabilization in methicillin resistant Staphylococcus aureus clinical isolate MRS153 assessed as increase in […] fluorescence at 5 ug/ml by PI staining based analysis; type: cell membranes; conditions: dose 5.0 µg/ml
Staphylococcus aureus [17] = assay: Induction of drug resistance in Staphylococcus aureus ATCC6538 assessed as change in MIC measured after 10 passages; type: functional
Staphylococcus aureus [18] = assay: Bactericidal activity against Staphylococcus aureus ATCC6538 at 5 ug/ml measured upto 150 mins; type: functional, organism-based; conditions: dose 5.0 µg/ml
Staphylococcus hominis [19] = assay: Bactericidal activity against multidrug-resistant Staphylococcus hominis at 5 ug/ml measured upto 150 mins; type: functional, organism-based; conditions: dose 5.0 µg/ml
Staphylococcus aureus [20] = assay: Bactericidal activity against methicillin-resistant Staphylococcus aureus clinical isolate MRS1 at 5 ug/ml measured upto 150 mins; type: functional, organism-based; conditions: dose 5.0 µg/ml
Staphylococcus aureus [21] = assay: Bactericidal activity against methicillin-resistant Staphylococcus aureus clinical isolate MRS153 at 5 ug/ml measured upto 150 mins; type: functional, organism-based; conditions: dose 5.0 µg/ml
Staphylococcus aureus [22] = assay: Antimicrobial activity against methicillin resistant Staphylococcus aureus clinical isolate MRS153 assessed as membrane fluidity measured after 35 mins; type: functional, organism-based
Staphylococcus aureus [23] = assay: Antimicrobial activity against Staphylococcus aureus ATCC6538 assessed as proton dynamic dissipation at pH 5 to 11; type: functional, organism-based
Staphylococcus aureus [24] = assay: Binding affinity to Staphylococcus aureus ATCC6538 Phosphatidylglycerol assessed as change in MIC at upto 256 ug/ml measured after 22 hrs; conditions: dose <= 256.0 µg/ml
Staphylococcus aureus [25] = assay: Binding affinity to methicillin resistant Staphylococcus aureus clinical isolate MRS153 Phosphatidylglycerol assessed as change in MIC at upto 256 ug/ml measured after 22 hrs; conditions: dose <= 256.0 µg/ml
Staphylococcus aureus [26] = assay: Antimicrobial activity against Staphylococcus aureus ATCC6538 assessed as increase in ROS levels measured upto 90 mins by H2DCFDA probe based flow cytometry; type: functional, organism-based
Staphylococcus aureus [27] = assay: Antimicrobial activity against Staphylococcus aureus ATCC6538 assessed as increase in ROS levels measured upto 180 mins in presence of chloramphenicol by H2DCFDA probe based flow cytometry; type: functional, organism-based
Staphylococcus aureus [28] = assay: Antimicrobial activity against methicillin resistant Staphylococcus aureus clinical isolate MRS153 assessed as increase in ROS levels measured upto 180 mins in presence of chloramphenicol by H2DCFDA probe based flow cytometry; type: functional, organism-based
Staphylococcus aureus [29] = assay: Antimicrobial activity against Staphylococcus aureus ATCC6538 assessed as increase in ROS levels measured upto 180 mins in presence of 2,2'-bipyridyl and thiourea by H2DCFDA probe based flow cytometry; type: functional, organism-based
[30] = Toxicity in BALB/c mouse assessed as as change in ALT level at 25 to 50 mg/kg, iv; type: organism-based; conditions: in vivo, dose 25-50 mg/kg
[31] = Toxicity in BALB/c mouse assessed as as change in BUN level at 25 to 50 mg/kg, iv; type: organism-based; conditions: in vivo, dose 25-50 mg/kg
[32] = Toxicity in BALB/c mouse assessed as as effect on heart at 25 to 50 mg/kg, iv by H and E staining based analysis; type: organism-based; conditions: in vivo, dose 25-50 mg/kg
[33] = Toxicity in BALB/c mouse assessed as as effect on spleen at 25 to 50 mg/kg, iv by H and E staining based analysis; type: organism-based; conditions: in vivo, dose 25-50 mg/kg
Staphylococcus aureus [34] = assay: In vivo antibacterial activity against methicillin-resistant Staphylococcus aureus clinical isolate MRS153 infected in C57BL/6N mouse model assessed as reduction in bacterial load in lung at 3.125 to 12.5 mg/kg, iv measured after 24 hrs; type: functional, organism-based; conditions: dose 3.125-12.5 mg/kg
Staphylococcus aureus [35] = assay: Antibacterial activity against methicillin-resistant Staphylococcus aureus clinical isolate MRS153 infected in C57BL/6N mouse model assessed as improvement in survival rate at 3.125 to 12.5 mg/kg, iv administered as single dose measured for 7 days; type: functional, organism-based; conditions: dose 3.125-12.5 mg/kg, time 7.0 day
Staphylococcus aureus [36] = assay: Upregulation of multidrug efflux pump genes in Staphylococcus aureus ATCC6538 at 5 ug/ml incubated for 2 hrs by RNA sequencing analysis; type: functional; conditions: dose 5.0 µg/ml
Staphylococcus aureus [37] = assay: Upregulation of redox gene expression in Staphylococcus aureus ATCC6538 at 5 ug/ml incubated for 2 hrs by RNA sequencing analysis; type: functional, organism-based; conditions: dose 5.0 µg/ml
Staphylococcus aureus [38] = assay: Upregulation of repair gene expression in Staphylococcus aureus ATCC6538 at 5 ug/ml incubated for 2 hrs by RNA sequencing analysis; type: functional, organism-based; conditions: dose 5.0 µg/ml

O=C(CCC(F)(F)F)N(Cc1cc2ccccc2s1)c1cc(-c2noc(C(F)(F)F)n2)ccc1O
MIC (Staphylococcus hominis [1]): 1 µg/mL (≈ 1.94 µM) | Activity (Staphylococcus aureus [2]): Active | HC50 at 1 h [3]: 2400 µg/mL | selectivity ratio [4]: > 1000 | IC50 at 24 h [5]: 16.9 µg/mL (≈ 32.8 µM) | IC50 (A549): 16.8 µg/mL (≈ 32.7 µM) | MIC (Staphylococcus aureus [6]): 2 µg/mL (≈ 3.88 µM) | MIC (Staphylococcus aureus [7]): 1 µg/mL (≈ 1.94 µM) | MIC (Staphylococcus aureus [8]): 1 µg/mL (≈ 1.94 µM) | MIC (Staphylococcus aureus [9]): 1 µg/mL (≈ 1.94 µM) | MIC (Staphylococcus aureus [10]): 2 µg/mL (≈ 3.88 µM) | MIC (Staphylococcus aureus [11]): 1 µg/mL (≈ 1.94 µM) | Activity (Staphylococcus aureus [12]): Active | Activity (Staphylococcus aureus [13]): Active | Activity (Cell membrane [14]): Dose-Dependent Effect | Activity (Cell membrane [15]): Active | Activity (Cell membrane [16]): Active | Activity (Staphylococcus aureus [17]): inactive | Activity (Staphylococcus aureus [18]): Active | Activity (Staphylococcus hominis [19]): Active | Activity (Staphylococcus aureus [20]): Active | Activity (Staphylococcus aureus [21]): Active | Activity (Staphylococcus aureus [22]): Active | Activity (Staphylococcus aureus [23]): Active | Activity (Staphylococcus aureus [24]): inactive | Activity (Staphylococcus aureus [25]): inactive | Activity (Staphylococcus aureus [26]): Active | Activity (Staphylococcus aureus [27]): inactive | Activity (Staphylococcus aureus [28]): inactive | Activity (Staphylococcus aureus [29]): inactive | Activity [30]: Non-Toxic | Activity [31]: Non-Toxic | Activity [32]: Non-Toxic | Activity [33]: Non-Toxic | Activity (Staphylococcus aureus [34]): Active | Activity (Staphylococcus aureus [35]): Active | Activity (Staphylococcus aureus [36]): Active | Activity (Staphylococcus aureus [37]): Active | Activity (Staphylococcus aureus [38]): Active
